Measurements reported in US11957671B2, “Benzodioxane modulators of leukotriene A4 hydrolase (LTA4H) for prevention and treatment of aging-associated diseases” (Alkahest, Inc., priority 2021, dated 2024).

Legend:
[1] = tested on: synthesis of LTB4 in human whole blood; assay: human whole blood (HWB) assay, LTB4 production inhibition; type: cell-based; conditions: calcimycin 20 μM
Description: The compounds of the invention are additionally tested in a human whole blood (HWB) assay to determine their ability to inhibit the synthesis of LTB4 in a cellular system. Compounds are combined with heparinized human whole blood and incubated for 15 minutes at 37° C. Calcimycin (20 μM final, prepared in phosphate-buffered saline, pH 7.4) is then added and the mixture is incubated for another 30 minutes at 37° C. The samples are centrifuged for 5 min at low speed (1500×g) and the plasma layer is removed. Plasma LTB4 concentrations are then measured using an antibody-based homogenous time-resolved fluorescence method (CisBio, Bedford, Mass.). In general, the preferred potency range (IC50) of compounds in the HWB assay is between 10 nM to 10 μM, the more preferred potency range is 10 nM to 1 μM, and the most preferred potency range is 10 nM to 100 nM.

[2] = tested on: aged wild type (WT; C57BL/6) mice; assay: Contextual Fear Conditioning (CFC); type: in vivo, mouse; conditions: 10 mg/kg PO daily, after 8 days of treatment
Description: Mice were brought into the testing room immediately before their trial to avoid exposure to sounds and scents from testing. Day 1: For training, mice were placed in the chambers, bright house light and fan on, for 2 minutes. Then an auditory cue (2000 Hz, 70 dB, conditioned stimulus (CS)) was presented for 30 seconds. A 2 second foot shock (0.6 mA; unconditioned stimulus (US)) was administered for the final 2 seconds of the CS. This procedure was repeated once, each after a 2-minute interval, and the mouse was removed from the chamber 30 seconds after the second shock. The pans, chamber walls and grid floors were cleaned with 70% ethanol between trials. Day 2: […] after the training, the mouse was returned to the same chamber in which the training occurred (memory for context), and freezing behavior was recorded for 3 min. The mouse was returned to its home cage. The pans, chamber walls, and grid floors were cleaned with 70% ethanol between trials. Day 3: 24 hours after context testing, the mouse was returned to the same chamber and freezing was recorded in a novel environment (altered context) and in response to the cue (memory for cue). […] The mouse was placed in the novel environment and freezing was recorded for 2 minutes. The auditory cue (2000 Hz, 70 dB, CS) was then presented for 30 seconds, and freezing was again recorded for 2 minutes. […]

aged C57BL6 mice = assay: Inverted Wire Hang; type: in vivo, mouse; conditions: 12 days of dosing
Description: Mice were brought into the experimental room for at least 20 minutes of acclimation to the experimental room conditions (bright lighting) prior to testing. Each mouse was placed in the center of the grid. Then swiftly in one continuous motion the grid was inverted 180 degrees to suspend the mouse upside down with their nose being the last part of the mouse to be suspended. The timer was started once the mouse was completely suspended and time to fall was recorded. Mice were tested 3 times with no rest period between each test with a maximum suspension time of 120 seconds. The maximum and average time to fall were scored for each animal.

aged C57BL/6 mice = assay: Long term potentiation (LTP) in hippocampal slices; type: in vivo, mouse; conditions: 1 month bid po, 1 mg/kg Compound 1 or 2.5 mg/kg SC57461A
Description: Aged C57BL/6 mice (21 months of age) were treated for 1 month bid po with vehicle, 1 mg/kg Compound 1, or 2.5 mg/kg SC57461A (n=5 mice per treatment group). Electrophysical recordings were performed at AfaSci, Inc, as follows. Animals were deeply anesthetized with halothane and decapitated. The brain was quickly taken out and placed into ice-cold artificial cerebrospinal fluid (ACSF) that was continuously bubbled with 5% CO2/95% O2. The ACSF was composed of (in mM) NaCl 130.0, KCl 2.5, KH2PO4 1.2, CaCl2 2.4, MgSO4 1.3, NaHCO326.0 and glucose 10.0 (pH 7.4). Hippocampal slices (400 μm thick) were prepared using a tissue slicer (Stoelting Co., IL) and incubated at room temperature in continuously oxygenated ACSF for at least 1 h before being recorded with submerged mode in chamber (Harvard Apparatus) at room temperature. Data were collected with an Axopatch-2B amplifier and pClamp 10.4 program (Axon Instruments) through digidata 1320A.
Field population spike (PS) was recorded using glass microelectrode filled with ACSF (resistance: 1-3 MO). Biphasic current pulses (0.2 ms duration for one phase, 0.4 ms in total) were delivered in 10 s intervals through a concentric bipolar stimulating electrode (FHC, Inc.). […] To record field population spikes in dorsal dentate gyrus, the stimulating electrode was placed on the hippocampal fissure to stimulate the bypassing perforant pathway fibers and the recording electrode was placed on inner part of granular cell layer. To record field EPSPs in DG, the stimulating electrode was placed on the hippocampal fissure to stimulate the bypassing perforant pathway fibers and the recording electrode was placed on inner part of granular cell layer. Slices were recorded within 8 hours after dissection. Titanic stimulation consisted of 2 trains of 100 pulses (0.4 ms bipolar pulse duration, 100 Hz) lasting for 1 second with 5 seconds of interval. The slope of EPSP and amplitude of population spike were measured from the initial phase of negative wave with Clampfit10.4. Each data point was measured with average of 3 consecutive traces. LTP was plotted as the percentage to baseline following high frequency stimulation (mean±SEM).

IC50 [1]: 179 nM | maximum hang time in the wire hang test (aged C57BL6 mice): no change in maximum hang time
SMILES: O=C(O)C1CCN(Cc2ccc([C@H]3COc4ccccc4O3)cc2)CC1 [Example 1, 1-{4-[(2S)-2,3-dihydro-1,4-benzodioxin-2-yl]benzyl}piperidine-4-carboxylic acid]
percent time freezing during testing phase of CFC [2]: increased freezing time | LTP, CA1 region of the hippocampus (aged C57BL/6 mice): increase in LTP | LTP, DG region of the hippocampus (aged C57BL/6 mice): increase in LTP
